This assay relates to P388 leukemia ip, CD2F1 mice, survival T/C. The assay can be described thus: NCI In Vivo Anticancer Drug Screen. Data for tumor model P388 Leukemia (intraperitoneal) in CD2F1 (CDF1) mice. Particulars: endpoint: median survival time, higher = longer survival. In a few lines:
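Mice carrying the transplanted tumor received test compound or vehicle. Survival was recorded in each group, and the value is the treated-group measurement divided by that of the vehicle-treated control group.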

[1] abbreviates: dose: 6.25 mg/kg/injection, schedule: Q01DX009 (ip), vehicle: Klucel (hydroxypropylcellulose) (HPC).
Setting [2] is: dose: 12.5 mg/kg/injection, schedule: Q01DX009 (ip), vehicle: Klucel (hydroxypropylcellulose) (HPC).
[3] abbreviates: dose: 50.0 mg/kg/injection, schedule: Q01DX005 (ip), vehicle: saline with Tween-80.
Setting [4] is: dose: 100.0 mg/kg/injection, schedule: Q01DX005 (ip), vehicle: saline with Tween-80.
Setting [5] is: dose: 50.0 mg/kg/injection, schedule: Q01DX009 (ip), vehicle: saline.
Setting [6] is: dose: 100.0 mg/kg/injection, schedule: Q01DX009 (ip), vehicle: saline.
Where [7] appears, read: dose: 200.0 mg/kg/injection, schedule: Q01DX005 (ip), vehicle: saline with Tween-80.
Setting [8] is: dose: 50.0 mg/kg/injection, schedule: Q01DX005 (ip), vehicle: Klucel (hydroxypropylcellulose) (HPC).
The mark [9] stands for this setting: dose: 100.0 mg/kg/injection, schedule: Q01DX005 (ip), vehicle: Klucel (hydroxypropylcellulose) (HPC).
Where [10] appears, read: dose: 50.0 mg/kg/injection, schedule: Q01DX009 (ip), vehicle: saline with Tween-80.
Where [11] appears, read: dose: 100.0 mg/kg/injection, schedule: Q01DX009 (ip), vehicle: saline with Tween-80.
Where [12] appears, read: dose: 200.0 mg/kg/injection, schedule: Q01DX009 (ip), vehicle: saline with Tween-80.
Where [13] appears, read: dose: 60.0 mg/kg/injection, schedule: Q01DX005 (ip), vehicle: saline with Tween-80.
[14] abbreviates: dose: 120.0 mg/kg/injection, schedule: Q01DX005 (ip), vehicle: saline with Tween-80.
[15] abbreviates: dose: 240.0 mg/kg/injection, schedule: Q01DX005 (ip), vehicle: saline with Tween-80.
The mark [16] stands for this setting: dose: 100.0 mg/kg/injection, schedule: Q01DX009 (ip), vehicle: Klucel (hydroxypropylcellulose) (HPC).
The mark [17] stands for this setting: dose: 200.0 mg/kg/injection, schedule: Q01DX009 (ip), vehicle: Klucel (hydroxypropylcellulose) (HPC).
Setting [18] is: dose: 200.0 mg/kg/injection, schedule: Q01DX005 (ip), vehicle: Klucel (hydroxypropylcellulose) (HPC).

The structures appear in SMILES notation. “And” between values parts separate entries of the source, which are not always exact repeats. Identical values can stand only once. Inconclusive results and toxic doses are left out.

The text below walks through data of PubChem BioAssay AID330 (DTP/NCI, 2004).

For `CSCCC([NH-])C(=O)O.CSCCC([NH-])C(=O)O.[Cu+2]` (configuration not stated), the T/C was 102 % of control (dose: 3.12 mg/kg/injection, schedule: Q01DX009 (ip), vehicle: saline); 94 % of control under setting [1]; 94 % of control (dose: 6.25 mg/kg/injection, schedule: Q01DX009 (ip), vehicle: saline); 94 % of control under setting [2]; 100 % of control (dose: 12.5 mg/kg/injection, schedule: Q01DX009 (ip), vehicle: saline).
Consider `CCCCCN(CCCCC)C(C)C(O)c1ccc2cc(Cl)c3ccccc3c2c1` (configuration not stated), for which the T/C reads like this: under setting [3], 99 % of control; under setting [4], 101 % of control.
As to `Fc1ccc(NC(=S)SCc2ccccc2)cc1F`, the T/C was 100 % of control under setting [5]; 108 % of control under setting [6]; 107 % of control (dose: 200.0 mg/kg/injection, schedule: Q01DX009 (ip), vehicle: saline).
In the case of `c1ccc2c(-c3nccc4ccccc34)nccc2c1`, the T/C under setting [3] is 99 % of control, the T/C under setting [4] was 103 % of control and the T/C under setting [7] is 92 % of control.
As for `O=S1Nc2ccccc2[C@H]2[C@@H]1[C@H]1O[C@@H]2c2ccccc21` (some centres not stated), the T/C is 112 % of control under setting [8]; 105 % of control under setting [9]; 101 % of control (dose: 240.0 mg/kg/injection, schedule: Q01DX005 (ip), vehicle: Klucel (hydroxypropylcellulose) (HPC)).
For `COC(=O)C(Cc1c[nH]c2ccccc12)NC(=O)c1ccccc1NC(=O)OCc1ccccc1` (configuration not stated), the T/C reads like this: (dose: 17.5 mg/kg/injection, schedule: Q01DX005 (ip), vehicle: Klucel (hydroxypropylcellulose) (HPC)) 103 % of control; (dose: 35.0 mg/kg/injection, schedule: Q01DX005 (ip), vehicle: Klucel (hydroxypropylcellulose) (HPC)) 104 % of control; (dose: 70.0 mg/kg/injection, schedule: Q01DX005 (ip), vehicle: Klucel (hydroxypropylcellulose) (HPC)) 97 % of control.
In the case of `CC(C)(C)OC(=O)n1cnc(CC(NC(=O)OCc2ccccc2)C(=O)O)c1` (configuration not stated), the T/C is 105 % of control under setting [3], 100 % of control under setting [4] and 106 % of control under setting [7].
As for `CCCC#CC(=O)OC`, the T/C is 97 % of control under setting [10], 100 % of control under setting [11] and 106 % of control under setting [12].
Consider `Cc1nc([Se]c2nc(C)n3ccncc23)c2cnccn12`, for which the T/C is 95 % of control (dose: 37.5 mg/kg/injection, schedule: Q01DX001 (ip), vehicle: saline with Tween-80); 100 % of control (dose: 75.0 mg/kg/injection, schedule: Q01DX001 (ip), vehicle: saline with Tween-80); 100 % of control (dose: 150.0 mg/kg/injection, schedule: Q01DX001 (ip), vehicle: saline with Tween-80).
`CC(C)NCC(O)COc1ccccc1C1CC1` (configuration not stated): the T/C is 106 % of control under setting [5] and 104 % of control under setting [6].
In the case of `Cc1cccc(NC(=S)NC2C(=O)Nc3ccccc32)c1` (configuration not stated), the T/C under setting [13] was 102 % of control, the T/C under setting [14] was 100 % of control and the T/C under setting [15] is 98 % of control.
`C=C1C(=O)OC2(C)CCC1CC1OC1(C)CCC=C(C)CCC2O` (configuration not stated): the T/C by setting is: under setting [2], 98 % of control; (dose: 25.0 mg/kg/injection, schedule: Q01DX009 (ip), vehicle: Klucel (hydroxypropylcellulose) (HPC)) 101 % of control; (dose: 50.0 mg/kg/injection, schedule: Q01DX009 (ip), vehicle: Klucel (hydroxypropylcellulose) (HPC)) 106 % of control; under setting [16], 101 % of control; under setting [17], 106 % of control.
Take `COc1ccc(/C=C\C(C)=N\NC(=S)Nc2ccc(Br)cc2)cc1`: the T/C runs as follows: under setting [8], 97 % of control; under setting [9], 96 % of control; under setting [18], 89 % of control.
Consider `Cc1cc2c(=O)[nH]c(N)nc2[nH]1`, for which the T/C was 99 % of control (dose: 12.5 mg/kg/injection, schedule: Q01DX009 (ip), vehicle: suspension in saline); 115 % of control (dose: 25.0 mg/kg/injection, schedule: Q01DX009 (ip), vehicle: suspension in saline); 113 % of control and 116 % of control (dose: 50.0 mg/kg/injection, schedule: Q01DX009 (ip), vehicle: suspension in saline).
`CC(OC(=O)C1C2C=CC(C2)C1C(=O)O)c1cccnc1` (configuration not stated): the T/C reads like this: under setting [8], 97 % of control; under setting [9], 100 % of control; under setting [18], 98 % of control.
Turning to `C=C(C)C(=O)O[C@H]1C[C@@]2(C)OC(=CC2=O)/C(CO)=C\[C@H]2OC(=O)C(=C)[C@H]12`, the T/C (dose: 1.56 mg/kg/injection, schedule: Q01DX009 (ip), vehicle: Klucel (hydroxypropylcellulose) (HPC)) is 108 % of control; the T/C (dose: 3.13 mg/kg/injection, schedule: Q01DX009 (ip), vehicle: Klucel (hydroxypropylcellulose) (HPC)) was 106 % of control; the T/C under setting [1] was 117 % of control.
Regarding `COC(=O)c1nnc(C(=O)OC)c2c1c1ccccc1n2C(=O)c1ccccc1`, the T/C was 105 % of control under setting [13], 93 % of control under setting [14] and 91 % of control under setting [15].
Consider `COc1cc2ccc(CC(N)=O)cc2cc1OC`, for which the T/C was 118 % of control under setting [11] and 109 % of control under setting [12].
In the case of `O=c1oc(-c2cccc(C(Cl)Cl)c2)ns1`, the T/C reads like this: under setting [16], 112 % of control; under setting [17], 107 % of control; (dose: 400.0 mg/kg/injection, schedule: Q01DX009 (ip), vehicle: Klucel (hydroxypropylcellulose) (HPC)) 105 % of control.
With `Nc1nc(SC2CCCCC2)c2[nH]cnc2n1`, the T/C by setting is: under setting [11], 90 % of control; (dose: 100.0 mg/kg/injection, schedule: Q04DX003 (ip), vehicle: saline with Tween-80) 100 % of control; under setting [12], 95 % of control; (dose: 200.0 mg/kg/injection, schedule: Q04DX003 (ip), vehicle: saline with Tween-80) 116 % of control; (dose: 400.0 mg/kg/injection, schedule: Q01DX009 (ip), vehicle: saline with Tween-80) 90 % of control; (dose: 400.0 mg/kg/injection, schedule: Q04DX003 (ip), vehicle: saline with Tween-80) 108 % of control.
Turning to `CC(C)SC1NC(=O)N(C)C1=O` (configuration not stated), the T/C is 100 % of control under setting [10], 107 % of control under setting [11] and 100 % of control under setting [12].
On to `O=C1c2cccc([N+](=O)[O-])c2C(=O)c2nccnc21`, for which the T/C (dose: 6.0 mg/kg/injection, schedule: Q01DX005 (ip), vehicle: Klucel (hydroxypropylcellulose) (HPC)) was 100 % of control and the T/C (dose: 12.0 mg/kg/injection, schedule: Q01DX005 (ip), vehicle: Klucel (hydroxypropylcellulose) (HPC)) is 107 % of control.
Take `N#Cc1c(O)c2c(c(O)c1C#N)C(=O)c1ccccc1C2=O`: the T/C was 97 % of control under setting [3], 95 % of control under setting [4] and 92 % of control under setting [7].
For `CC(C(=O)O)n1c(=O)ssc1=O` (configuration not stated), the T/C runs as follows: (dose: 15.0 mg/kg/injection, schedule: Q01DX005 (ip), vehicle: Klucel (hydroxypropylcellulose) (HPC)) 102 % of control; (dose: 30.0 mg/kg/injection, schedule: Q01DX005 (ip), vehicle: Klucel (hydroxypropylcellulose) (HPC)) 93 % of control; (dose: 60.0 mg/kg/injection, schedule: Q01DX005 (ip), vehicle: Klucel (hydroxypropylcellulose) (HPC)) 93 % of control.
Turning to `CC([NH-])C[NH-].[Br][Pt+2][Br]` (configuration not stated), the T/C is 158 % of control (dose: 12.5 mg/kg/injection, schedule: Q04DX002 (ip), vehicle: saline with Tween-80) and 174 % of control (dose: 25.0 mg/kg/injection, schedule: Q04DX002 (ip), vehicle: saline with Tween-80).
Regarding `COC1=C(OC)C(=O)C(Sc2ccc3ccccc3c2)=CC1=O`, the T/C runs as follows: (dose: 6.25 mg/kg/injection, schedule: Q01DX009 (ip), vehicle: saline with Tween-80) 103 % of control and 104 % of control; (dose: 12.5 mg/kg/injection, schedule: Q01DX009 (ip), vehicle: saline with Tween-80) 104 % of control; (dose: 25.0 mg/kg/injection, schedule: Q01DX009 (ip), vehicle: saline with Tween-80) 104 % of control and 119 % of control; under setting [10], 100 % of control and 111 % of control; under setting [11], 100 % of control.
